Earlier results, collected in patent publication US6420378B1, “Inhibition of abnormal cell proliferation with camptothecin and combinations including the same” (priority 1999, dated 2002).

Experiments:
[1] = system: human colon cancer xenografts; settings: mouse, in vivo
[2] = system: human tumor xenografts
[3] = clinical trials, administered intravenously
[4] = system: tumorigenic human cells; settings: in vitro
[5] = system: nontumorigenic human cells; settings: in vitro

CC[C@@]1(O)C(=O)OCc2c1cc1n(c2=O)Cc2cc3c(N)cccc3nc2-1 [9AC, 9-Amino-20(S)-Camptothecin]
anticancer activity against human colon cancer xenografts [1]: high anticancer activity

CC[C@@]1(O)C(=O)OCc2c1cc1n(c2=O)Cc2cc3c([N+](=O)[O-])cccc3nc2-1 [9NC, 9-nitrocamptothecin]
growth of human tumor xenografts ([2]; immunodeficient nude mice): inhibited the growth
activity against human tumor xenograft models ([2]; mouse, in vivo): high activity
regression of human tumors established as xenografts ([2]; nude mice): induced regression

CC[C@@]1(O)C(=O)OCc2c1cc1n(c2=O)Cc2cc3cc4c(cc3nc2-1)OCO4 [10,11 MD, 10,11-Methylendioxy-20(S)-Camptothecin]
anticancer activity against human colon cancer xenografts [1]: high anticancer activity

CC[C@@](O)(C(=O)[O-])c1cc2n(c(=O)c1CO)Cc1cc3ccccc3nc1-2.[Na+] [20(S)-camptothecin Na+]
potency [3]: low potency
toxicity [3]: high toxicity

CC[C@@]1(O)C(=O)OCc2c1cc1n(c2=O)Cc2cc3ccccc3nc2-1 [20(S)-camptothecin]
effect on tumorigenic cells [4]: cytotoxic
effect on nontumorigenic cells [5]: cytostatic
